In test [1] the target is T1, IDO (Homo sapiens (Human), UniProt P14902). Nature of the test: Kynurenine assay in IFN-γ-stimulated Hela cells. The following applies: 20 h, read-out: Hela Kyurenine (IC50). The format is cell-based. The method, boiled down: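 Hela cells adhered 5-6 h, then received inhibitor (top dose 30 μM, 3-fold dilutions to 1.5 nM) plus 100 ng/mL human IFN-γ to induce IDO, 20 h at 37° C. TCA added, 30 min at 50° C hydrolyses N-formylkynurenine to kynurenine. Supernatant mixed with Ehrlich reagent, 10 min RT, absorbance 490 nm.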

Test [2] concerns the target T1, IDO. Nature of the test: LLE_IDO_ABS_DR (IDO assay, method not described).

T1 sequence (P14902 whole entry): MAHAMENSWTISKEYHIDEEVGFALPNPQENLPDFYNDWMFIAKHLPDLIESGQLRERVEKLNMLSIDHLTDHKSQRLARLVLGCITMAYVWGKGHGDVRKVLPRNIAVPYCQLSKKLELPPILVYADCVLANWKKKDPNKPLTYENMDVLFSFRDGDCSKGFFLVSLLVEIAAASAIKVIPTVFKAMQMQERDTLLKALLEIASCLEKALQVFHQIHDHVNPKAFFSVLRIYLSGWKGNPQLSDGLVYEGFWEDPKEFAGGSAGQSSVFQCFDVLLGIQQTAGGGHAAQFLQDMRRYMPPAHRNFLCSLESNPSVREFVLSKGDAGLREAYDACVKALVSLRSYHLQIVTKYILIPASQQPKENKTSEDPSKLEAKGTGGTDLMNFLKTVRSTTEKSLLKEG

Turning to `COc1ccc(-c2ccc(Oc3cccc4c3OC(C)(C)C4)c(NC(=O)Nc3ccccc3Cl)c2)cc1C(=O)O` [Example 133, 3′-(3-(2-chlorophenyl)ureido)-4′-(2,2-dimethyl-2,3-dihydrobenzofuran-7-yloxy)-4-methoxybiphenyl-3-carboxylic acid], the IC50 was 590 nM at IDO [1] and 1830 nM against IDO [2].

As for `Cc1ccc(NC(=O)Nc2cc(-c3ccccc3-c3nnn[nH]3)ccc2Oc2cccc3c2CCCC3)cc1` [Example 185, 1-(4-(5,6,7,8-tetrahydronaphthalen-1-yloxy)-2′-(1H-tetrazol-5-yl)biphenyl-3-yl)-3-p-tolylurea], the half-inhibitory concentration (IC50) at IDO [1] is 160 nM; against IDO [2], 680 nM.

`COc1ccc(-c2ccc(O[C@@H]3CCCC[C@H]3C)c(NC(=O)Nc3ccccc3Cl)c2)cc1C(=O)O` (relative stereo) [Example 132, 3′-(3-(2-chlorophenyl)ureido)-4-methoxy-4′-((trans)-2-methylcyclohexyloxy)biphenyl-3-carboxylic acid]: the IC50 was determined as 990 nM at IDO [1] and 1460 nM at IDO [2].

Regarding `COc1ccc(-c2ccc(Oc3ccccc3C(C)C)c(NC(=O)Nc3ccccc3Cl)c2)cc1C(=O)O` [Example 62, 3′-(3-(2-chlorophenyl)ureido)-4′-(2-isopropylphenoxy)-4-methoxybiphenyl-3-carboxylic acid], the IC50 on IDO [1] worked out at 140 nM; against IDO [2], 530 nM.

As for `O=C(Nc1ccc(Cl)cc1)Nc1cc(-c2ccccc2-c2nnn[nH]2)ccc1Oc1cccc2c1CCCC2` [Example 189, 1-(4-chlorophenyl)-3-(4-(5,6,7,8-tetrahydronaphthalen-1-yloxy)-2′-(1H-tetrazol-5-yl)biphenyl-3-yl)urea], the IC50 on IDO [1] is 360 nM; against IDO [2], 1240 nM.

Take `Cc1ccc(NC(=O)Nc2cc(-c3ccc(Cl)cc3C(=O)O)ccc2Oc2ccccc2C(C)(C)C)cc1` [Example 161, 4′-(2-tert-butylphenoxy)-4-chloro-3′-(3-p-tolylureido)biphenyl-2-carboxylic acid]: the values for the IC50 on IDO [1] and on IDO [2] were 50 nM and 240 nM, respectively.

With `Cc1ccc(NC(=O)Nc2cc(-c3ccc(C(=O)O)nc3)ccc2Oc2ccccc2C(C)(C)C)cc1` [Example 178, 5-(4-(2-tert-butylphenoxy)-3-(3-p-tolylureido)phenyl)picolinic acid], the concentration for half-maximal inhibition (IC50) at IDO [1] was 890 nM; at IDO [2] it was 1740 nM.

Consider `Cc1ccccc1NC(=O)Nc1cc(-c2ccc(Cl)cc2C(=O)O)ccc1Oc1ccccc1C(C)(C)C` [Example 159, 4′-(2-tert-butylphenoxy)-4-chloro-3′-(3-o-tolylureido)biphenyl-2-carboxylic acid], for which the IC50 on IDO [1] worked out at 870 nM; at IDO [2] it was 3470 nM.

Regarding `CC(C)(C)c1ccccc1Oc1ccc(-c2ccccc2-c2nnn[nH]2)cc1NC(=O)Nc1ccccc1` [Example 180, 1-(4-(2-tert-butylphenoxy)-2′-(1H-tetrazol-5-yl)biphenyl-3-yl)-3-phenylurea], the 50% inhibitory concentration (IC50) on IDO [1] stood at 150 nM; against IDO [2], 270 nM.

Regarding `COc1ccc(-c2ccc(Oc3ccccc3C(C)(C)C)c(NC(=O)Nc3ccccc3C)c2)c(C(=O)O)c1` [Example 162, 4′-(2-tert-butylphenoxy)-4-methoxy-3′-(3-o-tolylureido)biphenyl-2-carboxylic acid], the results for the IC50 at IDO [1] and against IDO [2] were 1250 nM and 2240 nM, respectively.

Consider `Cc1cccc(NC(=O)Nc2cc(-c3ccccc3C(=O)O)ccc2Oc2ccccc2C(C)(C)C)c1` [Example 157, 4′-(2-tert-butylphenoxy)-3′-(3-m-tolylureido)biphenyl-2-carboxylic acid], for which the figures for the IC50 at IDO [1] and on IDO [2] were 2120 nM and 3680 nM, respectively.

For `Cc1ccc(NC(=O)Nc2cc(-c3ccc(C(=O)O)c(Cl)c3)ccc2Oc2ccccc2C(C)(C)C)cc1` [Example 257, 4′-(2-tert-butylphenoxy)-3-chloro-3′-(3-p-tolylureido) biphenyl-4-carboxylic acid], the values for the half-maximal inhibitory concentration (IC50) at IDO [1] and on IDO [2] were 440 nM and 1250 nM, respectively.

`COc1ccccc1NC(=O)Nc1cc(-c2ccc(OC)c(C(=O)O)c2)ccc1Oc1ccccc1C(C)(C)C` [Example 83, 4′-(2-(tert-butyl)phenoxy)-4-methoxy-3′-(3-(2-methoxyphenyl)ureido)-[1,1′-biphenyl]-3-carboxylic acid]: the IC50 stood at 210 nM on IDO [1] and 1190 nM at IDO [2].

For the compound `Cc1ccc(NC(=O)Nc2cc(-c3cccc(Cl)c3C(=O)O)ccc2Oc2ccccc2C(C)(C)C)cc1` [Example 174, 4′-(2-tert-butylphenoxy)-3-chloro-3′-(3-p-tolylureido)biphenyl-2-carboxylic acid], the IC50 at IDO [1] stood at 280 nM; against IDO [2], 320 nM.

For `CC(C)(C)c1ccccc1Oc1ccc(-c2cccc(Cl)c2C(=O)O)cc1NC(=O)Nc1ccccc1Cl` [Example 172, 4′-(2-tert-butylphenoxy)-3-chloro-3′-(3-(2-chlorophenyl)ureido)biphenyl-2-carboxylic acid], the figures for the IC50 on IDO [1] and against IDO [2] were 1280 nM and 1920 nM, respectively.

On to `COc1ccc(-c2ccc(Oc3ccccc3C3CC3)c(NC(=O)Nc3cccc(C)c3)c2)cc1C(=O)O` [Example 126, 4′-(2-cyclopropylphenoxy)-4-methoxy-3′-(3-m-tolylureido)biphenyl-3-carboxylic acid], for which the figures for the IC50 at IDO [1] and at IDO [2] were 190 nM and 760 nM, respectively.

`COc1ccc(-c2ccc(Oc3ccccc3C(C)(C)C)c(NC(=O)Nc3ccccc3C)c2)c(-c2nnn[nH]2)c1` [Example 193, 1-(4-(2-tert-butylphenoxy)-4′-methoxy-2′-(1H-tetrazol-5-yl)biphenyl-3-yl)-3-o-tolylurea]: the figures for the IC50 at IDO [1] and against IDO [2] were 250 nM and 1160 nM, respectively.

Consider `O=C(Nc1ccc(Cl)cc1)Nc1cc(-c2ccccc2-c2nnn[nH]2)cc(CC2CC2)c1OC1CCOCC1` [Example 331], for which the values for the 50% inhibitory concentration (IC50) at IDO [1] and against IDO [2] were 520 nM and 810 nM, respectively.

As to `COc1ccc(-c2ccc(Oc3cccc(C(C)(C)C)c3)c(NC(=O)Nc3cccc(C)c3)c2)cc1C(=O)O` [Example 112, 4′-(3-tert-butylphenoxy)-4-methoxy-3′-(3-m-tolylureido)biphenyl-3-carboxylic acid], the half-maximal inhibitory concentration (IC50) came out at 370 nM on IDO [1] and 1050 nM against IDO [2].

For `CCCc1ccccc1Oc1ccc(-c2ccc(OC)c(C(=O)O)c2)cc1NC(=O)Nc1ccccc1Cl` [Example 74, 3′-(3-(2-chlorophenyl)ureido)-4-methoxy-4′-(2-propylphenoxy)biphenyl-3-carboxylic acid], the IC50 was determined as 400 nM at IDO [1] and 520 nM against IDO [2].

Consider `COc1ccc(-c2ccc(Oc3ccc4c(c3)CCCC4)c(NC(=O)Nc3ccccc3C)c2)cc1C(=O)O` [Example 146, 4-methoxy-4′-(5,6,7,8-tetrahydronaphthalen-2-yloxy)-3′-(3-o-tolylureido)biphenyl-3-carboxylic acid], for which the values for the IC50 at IDO [1] and at IDO [2] were 270 nM and 580 nM, respectively.

As to `CCc1ccccc1Oc1ccc(-c2ccc(OC)c(C(=O)O)c2)cc1NC(=O)Nc1cccc(C)c1` [Example 57, 4′-(2-ethylphenoxy)-4-methoxy-3′-(3-m-tolylureido)biphenyl-3-carboxylic acid], the IC50 is 130 nM at IDO [1] and 390 nM on IDO [2].

As for `Cc1ccc(NC(=O)Nc2cc(-c3ccc(C(F)(F)F)cc3C(=O)O)ccc2Oc2ccccc2C(C)(C)C)cc1` [Example 177, 4′-(2-tert-butylphenoxy)-3′-(3-p-tolylureido)-4-(trifluoromethyl)biphenyl-2-carboxylic acid], the concentration for half-maximal inhibition (IC50) is 200 nM at IDO [1] and 420 nM against IDO [2].

On to `COc1ccccc1NC(=O)Nc1cc(-c2cccc(C(=O)O)c2)ccc1Oc1ccccc1C(C)(C)C` [Example 227, 4′-(2-tert-butylphenoxy)-3′-(3-(2-methoxyphenyl)ureido)biphenyl-3-carboxylic acid], for which the figures for the IC50 on IDO [1] and on IDO [2] were 930 nM and 10000 nM, respectively.

In the case of `Cc1ccc(NC(=O)Nc2cc(-c3cc(Cl)cc(C(=O)O)c3)ccc2Oc2ccccc2C(C)(C)C)cc1` [Example 246, 4′-(2-tert-butylphenoxy)-5-chloro-3′-(3-p-tolylureido) biphenyl-3-carboxylic acid], the IC50 at IDO [1] was 700 nM; against IDO [2], 3940 nM.

For the compound `Cc1ccc(NC(=O)Nc2cc(-c3ccc(F)cc3C(=O)O)ccc2Oc2ccccc2C(C)(C)C)cc1` [Example 170, 4′-(2-tert-butylphenoxy)-4-fluoro-3′-(3-p-tolylureido)biphenyl-2-carboxylic acid], the concentration for half-maximal inhibition (IC50) on IDO [1] came to 810 nM; against IDO [2] it was 2230 nM.

Turning to `COc1ccc(-c2ccc(Oc3ccccc3C(C)(C)C)c(NC(=O)Nc3ccc(C(F)(F)F)cc3)c2)cc1C(=O)O` [Example 43, 4′-(2-tert-butylphenoxy)-4-methoxy-3′-(3-(4-(trifluoromethyl)phenyl)ureido)biphenyl-3-carboxylic acid], the results for the half-maximal inhibitory concentration (IC50) on IDO [1] and against IDO [2] were 440 nM and 10000 nM, respectively.

Consider `COc1ccc(-c2ccc(Oc3ccccc3C3CC3)c(NC(=O)Nc3ccccc3C)c2)cc1C(=O)O` [Example 125, 4′-(2-cyclopropylphenoxy)-4-methoxy-3′-(3-o-tolylureido)biphenyl-3-carboxylic acid], for which the IC50 at IDO [1] came to 170 nM; on IDO [2], 730 nM.

Consider `CCCc1ccccc1Oc1ccc(-c2ccc(OC)c(C(=O)O)c2)cc1NC(=O)Nc1ccccc1C` [Example 75, 4-methoxy-4′-(2-propylphenoxy)-3′-(3-o-tolylureido)biphenyl-3-carboxylic acid], for which the IC50 on IDO [1] was 370 nM; at IDO [2], 550 nM.

On to `COc1ccc(-c2ccc(Oc3cccc(C(C)(C)C)c3)c(NC(=O)Nc3ccccc3Cl)c2)cc1C(=O)O` [Example 110, 4′-(3-tert-butylphenoxy)-3′-(3-(2-chlorophenyl)ureido)-4-methoxybiphenyl-3-carboxylic acid], for which the half-inhibitory concentration (IC50) at IDO [1] came to 130 nM; against IDO [2], 2050 nM.

For orientation: IC50 means the midpoint of a concentration-inhibition curve.

The values are drawn from US9765018B2, “IDO inhibitors” (BRISTOL-MYERS SQUIBB COMPANY, priority 2013, dated 2017).
